Settings: Crystal, Rate of evaporation

CC(C)(C)C(=O)/C=C(\[O-])C(C)(C)C.CC(C)(C)C(=O)/C=C(\[O-])C(C)(C)C.[Cu+2] [bis(2,2,6,6-tetramethyl-3,5-heptanedionato)copper(II)]
Settings | vapor or sublimation pressure [kPa]
375 K | 4e-05
385 K | 7.2e-05
395 K | 0.000151
404 K | 0.000343
415 K | 0.00072
425 K | 0.001456
435 K | 0.002373
